Test results published in paper PMC7927096, “Dipeptides of S-Substituted Dehydrocysteine as Artzyme Building Blocks: Synthesis, Complexing Abilities and Antiproliferative Properties” (International Journal of Molecular Sciences, 2021).
Counter-ions that a name gives are not always drawn.

Legend:
[1] = test system: ten diverse human cancer cells lines and murine non-tumorigenic cell line (Balb/3T3); assay: Antiproliferative screen, whole cell line panel (statements in words); type: cell-based; conditions: SRB, across cell lines
Excerpt: (§1) Ten different human cancer cell lines (including drug-resistant sublines) and one non-tumorigenic murine fibroblasts cell line were used to determine antiproliferative activity of the tested compounds. The MDA-MB-231 (breast adenocarcinoma), UM-UC-3 (urinary bladder transitional cell carcinoma), LoVo (colorectal adenocarcinoma), LoVo^Dx (colorectal adenocarcinoma, doxorubicin-resistant) and Balb/3T3 (non-tumorigenic murine fibroblasts) were purchased from the American Type Culture Collection (ATCC; Rockville, USA). The MCF-7 (breast adenocarcinoma) and A549 (lung carcinoma) were purchased from European Collection of Authenticated Cell Cultures (ECACC; Porton Down, UK). The UM-UC-3^CDDP, UM-UC-3^GEM, UM-UC-3^VBL, and UM-UC-3^CDDP/GEM cell lines were established at Hirszfeld Institute of Immunology and Experimental Therapy of the Polish Academy of Sciences (HIIET, PAS, Wroclaw, Poland) by the continuous exposure to the increasing concentrations of corresponding cytostatics.
(§2) The Balb/3T3 and UM-UC-3 were cultured in Dulbecco’s Modified Eagle Medium (DMEM; Life Technologies, UK) supplemented with 10% (v/v) fetal bovine serum (FBS; GE Healthcare HyClone, Logan, USA) and 2 mM L-glutamine (Sigma-Aldrich, Poznań, Poland). The UM-UC-3^CDDP, UM-UC-3^GEM, UM-UC-^3VBL, and UM-UC-3^CDDP/GEM culture media were additionally supplemented with appropriate cytostatics: 2.5 µg/mL cisplatin (Accord, Warsaw, Poland) for UM-UC-3^CDDP, 500 nM gemcitabine (Sigma-Aldrich, Poznań, Poland) for UM-UC-3^GEM, 5 nM vinblastine (Sigma-Aldrich, Poznań, Poland) for UM-UC-3VBL, 2.5 µg/mL cisplatin and 500 nM gemcitabine for UM-UC-3^CDDP/GEM. The LoVo cell line was cultured in F-12K Nutrient Mixture (F-12K; Corning, Corning, USA), supplemented with 10% (v/v) FBS. LoVo^Dx culture medium was additionally supplemented with doxorubicin 100 ng/mL (Accord, Warsaw, Poland). The MCF-7 cell line was cultured in Eagle’s medium (HIIET, PAS, Wroclaw, Poland), supplemented with 10% (v/v) FBS (Sigma-Aldrich, Poznań, Poland), 2 mM L-glutamine, MEM non-essential amino acid solution 1% (v/v) (Sigma-Aldrich, Poznań, Poland), insulin 8 µg/mL (Sigma-Aldrich, Poznań, Poland). The MDA-MB-231 cell line was cultured in RPMI 1640 (HIIET, PAS, Wroclaw, Poland), supplemented with 10% (v/v) FBS (Sigma-Aldrich, Poznań, Poland) and 2 mM L-glutamine. The A 549 cell line was cultured in OptiMEM (HIIET, PAS, Wroclaw, Poland), supplemented with 5% (v/v) FBS (GE Healthcare HyClone, Logan, USA) and 2 mM L-glutamine. All culture media were supplemented with antibiotics—100 μg/mL streptomycin (Polfa Tarchomin, Warsaw, Poland) and 100 U/mL penicillin (Sigma-Aldrich, Poznań, Poland).
(§3) All cell lines were cultured in a humidified atmosphere at 37 °C with 5% (v/v) CO2 and passaged twice a week using EDTA-Trypsin solution (pH 8; HIIET, Wroclaw, Poland) as a detachment agent.
(§4) All compounds, for antiproliferative activity assessment, were stored at […] as 50 mM solutions in dimethyl sulfoxide (DMSO; Avantor Performance Materials, Gliwice, Poland).
(§5) The cells were seeded on 384-well plates (Greiner Bio One, Kremsmünster, Austria) at 1 × 10^3 cells/well density for A 549, UM-UC-3, UM-UC-3^CDDP, UM-UC-3^GEM, UM-UC-3^CVBL and UM-UC-3^CDDP/GEM cell lines. Other cell lines were seeded at 2 × 10^3 cells/well. After overnight incubation, compounds were applied at eight concentrations (ranging from 100 µM to 0.03 µM). After 72 h incubation, the sulforhodamine B (SRB) assay based on Skehan et al. was carried out with slight modifications. In brief, 50 µL of the medium was replaced with 30 µL/well of 25% (w/v) trichloroacetic acid (Avantor Performance Materials, Gliwice, Poland). After 1 h incubation at room temperature, plates were washed three times with tap water, and 20 µL of 0.1% (w/v) solution of sulforhodamine B (Sigma-Aldrich, Poznan, Poland) in 1% (v/v) acetic acid (Avantor Performance Materials, Gliwice, Poland) was added to each well. […]

[2] = test system: Balb/3T3 (non-tumorigenic murine fibroblasts); assay: Antiproliferative activity, sulforhodamine B assay; type: cell-based; conditions: Mus musculus, BALB/3T3; SRB, 72 h incubation; non-tumorigenic line; read-out: IC50 ± SD, Balb/3T3
Excerpt: as §1, §2, §3, §4, §5

[3] = test system: LoVo (colorectal adenocarcinoma); assay: Antiproliferative activity, sulforhodamine B assay; type: cell-based, human; conditions: Homo sapiens, LoVo; SRB, 72 h incubation; read-out: IC50 ± SD, LoVo
Excerpt: as §1, §2, §3, §4, §5

[4] = test system: LoVo^DX (colorectal adenocarcinoma, doxorubicin-resistant); assay: Antiproliferative activity, sulforhodamine B assay; type: cell-based, human; conditions: Homo sapiens, LoVo/DX, SRB, 72 h incubation, read-out: IC50 ± SD, LoVo^DX
Excerpt: as §1, §2, §3, §4, §5

[5] = test system: MCF-7 (breast adenocarcinoma); assay: Antiproliferative activity, sulforhodamine B assay; type: cell-based, human; conditions: Homo sapiens, MCF7; SRB, 72 h incubation; read-out: IC50 ± SD, MCF-7
Excerpt: as §1, §2, §3, §4, §5

[6] = test system: MDA-MB-231 (breast adenocarcinoma); assay: Antiproliferative activity, sulforhodamine B assay; type: cell-based, human; conditions: Homo sapiens, MDA-MB-231; SRB, 72 h incubation; read-out: IC50 ± SD, MDA-MB-231
Excerpt: as §1, §2, §3, §4, §5

A549 (lung carcinoma) = assay: Antiproliferative activity, sulforhodamine B assay; type: cell-based, human; conditions: Homo sapiens, A549; SRB, 72 h incubation; read-out: IC50 ± SD, A-549
Excerpt: as §1, §2, §3, §4, §5

[7] = Potentiometric titration and spectroscopy, stability constants of Cu(II)-complexes; type: physicochemical; conditions: for Cu(II) complexing ability (in words): 10a versus 9a below pH 5, 9a versus Gly(Z)Phe, nL:nCu(II) = 1:1
Procedure: (§6) The pH-metric measurements were performed on Metrohm 905 Titrando system equipped with combined Biotrop® electrode. The titrant was 0.1 M KOH (Merck, Germany) freed of CO2 by bubbling Ar gas for 3 h. The electrode calibration was performed before each titration. The volume of all the samples was 1.5 mL and the measurements were carried out at a range of pH of 2.5–11.0 in thermostated vessels at 298 K in an inert atmosphere of Ar gas. The ligands 9a and 10a were diluted in hydrochloric acid (pH = 2.5), prepared from 37% HCl (Sigma-Aldrich, Poland). Their concentration was set up at a range of 1.0–2.0 × 10^−3 M and the ionic strength of 0.1 M was achieved by the addition of KCl (Sigma-Aldrich, Poland). The ligand-metal ion systems were prepared by addition of CuCl2 (Sigma-Aldrich, Poland). stock solutions to reach final ligand to metal ratio (nL: nCu^2+) being 2:1 or 1:1.
(§7) The protonation (βi = [HiL]/[H^+]^i[L]), stability constants (βpqr = [MpHqLr]/[M]^p[H]^q[L]^r), and stoichiometry of complexes were calculated using the HYPERQUAD program. The distribution species plots were made by HySS program. The standard deviations were computed for all the constants and indicated the presence of only random errors, which was a good evidence of the presence of each species in the equilibrium.
The UV-Vis absorption measurements were recorded on Varian Carry 50 Bio spectrophotometer. All spectra were collected in a quartz cuvette with 1 cm path length at 298 K. The spectral range was 300–800 nm with resolution 0.1 nm. The molar extinction coefficients (ε [M^−1cm^−1]) were calculated for each spectrum at a wavelength of maximum absorption.
The Circular Dichroism spectra (CD) and Magnetic Circular Dichroism (MCD) were measured on a JASCO J 600 spectropolarimeter in a range of 230–800 nm with 0.1 nm resolution. The optical length of the quartz cuvettes was 10 mm. The molar circular dichroism coefficient (Δε [M^−1cm^−1]) was calculated for each spectrum.
The Electron Paramagnetic Resonance (EPR) spectra were recorded on a Brucker ESP 300E spectrometer at X-band frequency (9.5 GHz) at 77 K obtained by the use of liquid nitrogen. The procedure of sample preparation for spectroscopic measurements was the same as in potentiometric titration. The EPR samples were protected by adding 30% of ethylene glycol (Sigma-Aldrich, Poland). The pH of the samples was determined by adding a small quantity of a concentrated solution of KOH (Merck, Germany) to achieve the desired value and controlled by Mettler Toledo pH-meter equipped with combined electrode InLab®Micro. The simulation of the EPR spectrum was performed by the Hyperfine Spectrum program written by W.R. Hagen.

[8] = Potentiometric titration, protonation constants of free ligands; type: physicochemical; conditions: 298 K, ionic strength 0.1 M KCl; for protonation constant logβ, H2L / protonation constant logβ, H3L / protonation constant logβ, HL: ± SD
Procedure: as §6, §7

[9] = 298 K, ionic strength 0.1 M KCl
[10] = 298 K, ionic strength 0.1 M KCl, ± SD

Structure (SMILES)	antiproliferative activity (in words) [1]	IC50 [5]	IC50 [6]	IC50 (A549 (lung carcinoma))	Cu(II) complexing ability (in words) [7]	logK, Cu2L2H [7, 9]	logK, CuL [7, 9]	logK, CuL2H [7, 9]	logK, CuLH2 [7, 9]	stability constant logβ, Cu2L2H [7, 10]	stability constant logβ, Cu2L2H-1 [7, 10]	stability constant logβ, CuL [7, 10]	stability constant logβ, CuL2 [7, 10]	stability constant logβ, CuL2H [7, 10]	stability constant logβ, CuLH2 [7, 10]	stability constant logβ, CuLH-1 [7, 10]	protonation constant logK, H3L [8]	protonation constant logK, HL [8]	protonation constant logβ, H2L [8]	protonation constant logβ, H3L [8]	other results
COC(=O)/C(=C/Sc1nc[nH]n1)NC(=O)CNC(=O)OC(C)(C)C [Compound 6a, Boc-Gly-ΔCys(S-triazole)-OMe]	markedly lower, if any, activity	–	–	–	–	–	–	–	–	–	–	–	–	–	–	–	–	–	–	–	–
COC(=O)/C(=C/Sc1nc2c(N)ncnc2[nH]1)NC(=O)CNC(=O)OC(C)(C)C [Compound 6e, Boc-Gly-ΔCys(S-adenine)-OMe]	markedly lower, if any, activity	–	–	–	–	–	–	–	–	–	–	–	–	–	–	–	–	–	–	–	–
COC(=O)/C(=C/Sc1nc2c(N)ncnc2[nH]1)NC(=O)[C@H](Cc1ccccc1)NC(=O)OC(C)(C)C [Compound 7e, Boc-Phe-ΔCys(S-adenine)-OMe]	markedly lower, if any, activity	101 ± 11.3 µM	74.5 ± 7.7 µM	> 100 µM	–	–	–	–	–	–	–	–	–	–	–	–	–	–	–	–	IC50 [2]: > 100 µM; IC50 [3]: 81.7 ± 12.4 µM; IC50 [4]: > 100 µM
COC(=O)/C(=C/Sc1nc[nH]n1)NC(=O)CN [Compound 9a, HCl Gly-ΔCys(S-triazole)-OMe]	–	–	–	–	significantly more effective in Cu(II) coordination	14.45	10.42	8.73	9.34	36.61 ± 0.03	22.16 ± 0.06	14.18 ± 0.01	20.06 ± 0.04	28.79 ± 0.04	23.52 ± 0.03	3.76 ± 0.04	7.26	10.09	18.05 ± 0.01	25.31 ± 0.01	logK, CuL2 [7, 9]: 11.35; logK, CuL2H2 [7, 9]: 7.67; stability constant logβ, CuL2H2 [7, 10]: 36.46 ± 0.04; stability constant logβ, CuL2H-1 [7, 10]: 8.71 ± 0.07; corrected stability constant (logβ = logβCuLH2 − logβH2L) ([7]; CuH2L complex, equimolar conditions): 5.47; logβ* = logβCuL − logKHL ([7]; CuL species, independent of logKtriazole): 4.09; protonation constant logβ, HL [8]: 10.09 ± 0.01
COC(=O)/C(=C/Sc1nc2ccccc2s1)NC(=O)CN [Compound 9d, HCl Gly-ΔCys(S-benzothiazole)-OMe]	–	> 100 µM	56 ± 7.1 µM	33.4 ± 6.4 µM	–	–	–	–	–	–	–	–	–	–	–	–	–	–	–	–	–
COC(=O)/C(=C/Sc1nc[nH]n1)NC(=O)[C@@H](N)Cc1ccccc1 [Compound 10a, HCl Phe-ΔCys(S-triazole)-OMe]	–	–	–	–	significantly more effective binder of Cu(II)	14.59	10.61	8.45	8.83	37.54 ± 0.06	22.95 ± 0.06	15.00 ± 0.01	20.37 ± 0.05	28.82 ± 0.11	23.83 ± 0.03	4.39 ± 0.03	6.85	10.42	18.53 ± 0.02	25.38 ± 0.02	protonation constant logβ, HL [8]: 10.42 ± 0.01
